Results taken from PMC5701174 (Scientific Reports, 2017).

Molecular target: T1, PlaA (rPlaA, Strep-PlaA) (Legionella pneumophila, UniProt A0A378KFD4)
T1 construct: gene NCTC12000_02489
Conditions: 37 °C, 3 h; 25 ng protein in 50 µl; without ProA

T1 sequence (A0A378KFD4 20-309 limits assumed): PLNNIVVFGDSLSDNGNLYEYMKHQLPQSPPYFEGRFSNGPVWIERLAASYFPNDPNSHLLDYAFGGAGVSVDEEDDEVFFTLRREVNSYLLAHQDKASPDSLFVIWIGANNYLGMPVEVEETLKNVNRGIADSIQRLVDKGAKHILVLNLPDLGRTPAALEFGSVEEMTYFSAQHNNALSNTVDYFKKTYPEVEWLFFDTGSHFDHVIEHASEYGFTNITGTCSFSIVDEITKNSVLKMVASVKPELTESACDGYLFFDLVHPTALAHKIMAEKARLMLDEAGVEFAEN

SMILES: CCCCCCCCCCCCCCCC(=O)OC[C@@H](O)COP(=O)([O-])OCC[N+](C)(C)C [LPC, 1-monopalmitoyllyso-phosphatidylcholine]
- free fatty acid quantification: rPlaA possessed lipase and LPLA activities, the latter especially towards LPG and LPC

SMILES: CCCCCCCCCCCCCCCC(=O)OC[C@@H](O)COP(=O)(O)OCC(O)CO (some centres unmarked) [LPG, 1-mono-palmitoyllysophosphatidylglycerol]
- free fatty acid quantification: rPlaA possessed lipase and LPLA activities, the latter especially towards LPG and LPC
